Assay results as given in PubChem BioAssay AID248 (DTP/NCI, 2004).
“And” between values parts separate entries of the source, which are not always exact repeats. Equal values may be shown once. Inconclusive results and toxic doses are left out. Rule as the data show it: active = T/C of 150% or more; inactive = T/C below 125%.

System: L1210 leukemia ip in BDF1 mice, survival T/C
Assay: NCI In Vivo Anticancer Drug Screen. Data for tumor model L1210 Leukemia (intraperitoneal) in B6D2F1 (BDF1) mice
Conditions: endpoint: mean survival time, higher = longer survival
Summary of the method: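 Read-out is survival time, reported as the treated-group measurement over the vehicle-control measurement.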

[1] = dose: 12.5 mg/kg/injection, schedule: Q01DX009 (ip), vehicle: saline with Tween-80
[2] = dose: 25.0 mg/kg/injection, schedule: Q01DX009 (ip), vehicle: saline with Tween-80
[3] = dose: 100.0 mg/kg/injection, schedule: Q04DX003 (ip), vehicle: saline
[4] = dose: 200.0 mg/kg/injection, schedule: Q04DX003 (ip), vehicle: saline
[5] = dose: 50.0 mg/kg/injection, schedule: Q04DX003 (ip), vehicle: saline
[6] = dose: 100.0 mg/kg/injection, schedule: Q01DX001 (ip), vehicle: saline
[7] = dose: 200.0 mg/kg/injection, schedule: Q01DX001 (ip), vehicle: saline
[8] = dose: 400.0 mg/kg/injection, schedule: Q01DX001 (ip), vehicle: saline
[9] = dose: 100.0 mg/kg/injection, schedule: Q01DX009 (ip), vehicle: Klucel (hydroxypropylcellulose) (HPC)
[10] = dose: 75.0 mg/kg/injection, schedule: Q01DX001 (ip), vehicle: saline
[11] = dose: 100.0 mg/kg/injection, schedule: Q04DX003 (ip), vehicle: Klucel (hydroxypropylcellulose) (HPC)
[12] = dose: 200.0 mg/kg/injection, schedule: Q04DX003 (ip), vehicle: Klucel (hydroxypropylcellulose) (HPC)
[13] = dose: 100.0 mg/kg/injection, schedule: Q01DX009 (ip), vehicle: saline with Tween-80

Measured: T/C

CC1(C)N=C(N)N=C(N)N1c1ccc(CCCCc2cccc(S(=O)(=O)F)c2)c(Cl)c1
inactive: dose: 6.25 mg/kg/injection, schedule: Q01DX009 (ip), vehicle: saline with Tween-80 106 % of control | [1] 104 % of control | [2] 113 % of control

CCOC1(OCC)CS(=O)(=O)C1
inactive: dose: 25.0 mg/kg/injection, schedule: Q01DX009 (ip), vehicle: saline sonified 100 % of control | dose: 50.0 mg/kg/injection, schedule: Q01DX009 (ip), vehicle: saline sonified 95 % of control | dose: 100.0 mg/kg/injection, schedule: Q01DX009 (ip), vehicle: saline sonified 106 % of control | [3] 109 % of control | [4] 117 % of control | dose: 400.0 mg/kg/injection, schedule: Q04DX003 (ip), vehicle: saline 112 % of control

COc1ccc(N=Cc2cc(Br)cc(Br)c2O)cc1.COc1ccc(N=Cc2cc(Br)cc(Br)c2O)cc1.[Co]
inactive: [5] 92 % of control | [3] 92 % of control | [4] 95 % of control

N#Cc1ccc(S(=O)(=O)N=C(N)N)cc1
inactive: [6] 100 % of control | [7] 91 % of control | [8] 90 % of control

CCNC(C)(C)C(SSSC(c1ccc(Cl)cc1)C(C)(C)NCC)c1ccc(Cl)cc1 (stereo not given)
inactive: dose: 50.0 mg/kg/injection, schedule: Q01DX009 (ip), vehicle: Klucel (hydroxypropylcellulose) (HPC) 94 % of control | [9] 91 % of control | dose: 100.0 mg/kg/injection, schedule: Q01DX009 (ip), vehicle: other 89 % of control

Cc1cc(SC#N)ccc1O
inactive: dose: 3.0 mg/kg/injection, schedule: Q01DX009 (ip), vehicle: saline with Tween-80 94 % of control | dose: 6.0 mg/kg/injection, schedule: Q01DX009 (ip), vehicle: saline with Tween-80 102 % of control | dose: 12.0 mg/kg/injection, schedule: Q01DX009 (ip), vehicle: saline with Tween-80 102 % of control | [2] 102 % of control | dose: 25.0 mg/kg/injection, schedule: Q04DX002 (ip), vehicle: other 93 % of control | dose: 50.0 mg/kg/injection, schedule: Q04DX002 (ip), vehicle: other 93 % of control | dose: 100.0 mg/kg/injection, schedule: Q04DX002 (ip), vehicle: other 97 % of control

BrCCCc1ccccc1
inactive: [10] 95 % of control | dose: 150.0 mg/kg/injection, schedule: Q01DX001 (ip), vehicle: saline 97 % of control

CN(C)S(=O)(=O)c1ccc(NC(=O)CI)cc1
inactive: dose: 12.0 mg/kg/injection, schedule: Q01DX001 (ip), vehicle: other 95 % of control | [1] 95 % of control | dose: 12.5 mg/kg/injection, schedule: Q04DX003 (ip), vehicle: other 95 % of control | dose: 25.0 mg/kg/injection, schedule: Q01DX001 (ip), vehicle: other 105 % of control | [2] 106 % of control | dose: 25.0 mg/kg/injection, schedule: Q04DX003 (ip), vehicle: other 101 % of control | dose: 50.0 mg/kg/injection, schedule: Q01DX001 (ip), vehicle: other 100 % of control | dose: 50.0 mg/kg/injection, schedule: Q04DX003 (ip), vehicle: other 96 % of control

Cc1nc2nc(N)nc(N)c2nc1C
inactive: dose: 15.63 mg/kg/injection, schedule: Q01DX Z (ip), vehicle: carboxymethylcellulose (CMC) 103 % of control | dose: 31.25 mg/kg/injection, schedule: Q01DX Z (ip), vehicle: carboxymethylcellulose (CMC) 93 % of control | dose: 50.0 mg/kg/injection, schedule: Q01DX001 (ip), vehicle: saline 117 % of control | dose: 62.5 mg/kg/injection, schedule: Q01DX Z (ip), vehicle: carboxymethylcellulose (CMC) 91 % of control | [6] 102 % of control | dose: 125.0 mg/kg/injection, schedule: Q01DX Z (ip), vehicle: carboxymethylcellulose (CMC) 92 % of control | [7] 102 % of control | [8] 100 % of control

Cc1n[nH]c(=O)[nH]c1=O
inactive: dose: 3.0 mg/kg/injection, schedule: Q01DX009 (ip), vehicle: saline 95 % of control | dose: 6.0 mg/kg/injection, schedule: Q01DX009 (ip), vehicle: saline 93 % of control | dose: 12.0 mg/kg/injection, schedule: Q01DX009 (ip), vehicle: saline 93 % of control | dose: 24.0 mg/kg/injection, schedule: Q01DX009 (ip), vehicle: saline 93 % of control | dose: 48.0 mg/kg/injection, schedule: Q01DX009 (ip), vehicle: saline 97 % of control | dose: 67.5 mg/kg/injection, schedule: Q01DX Z (ip), vehicle: saline 96 % of control | dose: 125.0 mg/kg/injection, schedule: Q01DX Z (ip), vehicle: saline 105 % of control | dose: 200.0 mg/kg/injection, schedule: Q01DX001 (ip), vehicle: acetone 97 % of control | dose: 250.0 mg/kg/injection, schedule: Q01DX Z (ip), vehicle: saline 96 % of control | dose: 400.0 mg/kg/injection, schedule: Q01DX001 (ip), vehicle: acetone 103 % of control | dose: 500.0 mg/kg/injection, schedule: Q01DX Z (ip), vehicle: saline 105 % of control | dose: 800.0 mg/kg/injection, schedule: Q01DX001 (ip), vehicle: acetone 98 % of control

CC(C)C(C)(C)NC(N)=O
inactive: [6] 102 % of control | [7] 104 % of control | [8] 104 % of control

Cc1cccc(C)c1NC(N)=S
inactive: [11] 98 % of control | [12] 90 % of control

CNC(=O)C1C2C=CC(C2)C1C(=O)NC (stereo not given)
inactive: dose: 100.0 mg/kg/injection, schedule: Q04DX003 (ip), vehicle: saline with Tween-80 93 % of control and 100 % of control and 87 % of control | dose: 200.0 mg/kg/injection, schedule: Q04DX003 (ip), vehicle: saline with Tween-80 96 % of control and 100 % of control and 106 % of control | dose: 400.0 mg/kg/injection, schedule: Q04DX003 (ip), vehicle: saline with Tween-80 93 % of control and 100 % of control (2×)

C[N+](C)(C)CCC(=O)c1ccccc1
inactive: dose: 12.5 mg/kg/injection, schedule: Q04DX003 (ip), vehicle: saline 97 % of control | dose: 25.0 mg/kg/injection, schedule: Q04DX003 (ip), vehicle: saline 100 % of control | [5] 94 % of control | [10] 102 % of control

N#CCCCC(=O)c1ccccc1
inactive: [2] 96 % of control | dose: 50.0 mg/kg/injection, schedule: Q01DX009 (ip), vehicle: saline with Tween-80 102 % of control | [13] 92 % of control

C=CN1C(=O)NC(C)(CC(C)C)C1=O (stereo not given)
inactive: [13] 104 % of control | dose: 200.0 mg/kg/injection, schedule: Q01DX009 (ip), vehicle: saline with Tween-80 91 % of control | dose: 400.0 mg/kg/injection, schedule: Q01DX009 (ip), vehicle: saline with Tween-80 92 % of control

CC(=O)Nc1ccc(S(=O)(=O)N2CC2)cc1
inactive: dose: 50.0 mg/kg/injection, schedule: Q01DX005 (ip), vehicle: saline 102 % of control | dose: 50.0 mg/kg/injection, schedule: Q04DX003 (ip), vehicle: Klucel (hydroxypropylcellulose) (HPC) 91 % of control | dose: 100.0 mg/kg/injection, schedule: Q01DX005 (ip), vehicle: saline 96 % of control | [11] 102 % of control | dose: 200.0 mg/kg/injection, schedule: Q01DX005 (ip), vehicle: saline 102 % of control | [12] 95 % of control

Cc1ccc2cc3c(cc(C)c4ccccc43)c3c2c1CC3
inactive: [6] 102 % of control | [7] 96 % of control | [8] 96 % of control

Cc1cccc(Cl)c1NC(=O)Nc1c(C)n(C)n(-c2ccccc2)c1=O
inactive: [9] 100 % of control | dose: 200.0 mg/kg/injection, schedule: Q01DX009 (ip), vehicle: Klucel (hydroxypropylcellulose) (HPC) 102 % of control | dose: 400.0 mg/kg/injection, schedule: Q01DX009 (ip), vehicle: Klucel (hydroxypropylcellulose) (HPC) 100 % of control

O=S1(=O)CC(O)C(Cl)C1 (stereo not given)
inactive: dose: 50.0 mg/kg/injection, schedule: Q01DX009 (ip), vehicle: saline 101 % of control | dose: 100.0 mg/kg/injection, schedule: Q01DX009 (ip), vehicle: saline 94 % of control | [3] 98 % of control | dose: 200.0 mg/kg/injection, schedule: Q01DX009 (ip), vehicle: saline 94 % of control | [4] 94 % of control
